From US20140057915A1, “KINASE INHIBITORS” (TOPIVERT PHARMA LIMITED, priority 2012, published 2014)

Columns and labels:
IL-8 release, PBMCs = test: LPS-induced IL-8 release in PBMC cells; assay type: cell-based; conditions: Homo sapiens, LPS stimulated, read-out: IC50 Values for Inhibition of Cytokine Release, PBMCs, IL-8
Description: (b) LPS-Induced TNFα/IL-8 Release in PBMC Cells
Peripheral blood mononuclear cells (PBMCs) from healthy subjects are separated from whole blood using a density gradient (Lymphoprep, Axis-Shield Healthcare). The PBMCs are seeded in 96 well plates and treated with compounds at the desired concentration for 2 hours before addition of 1 ng/ml LPS (Escherichia Coli 0111:B4 from Sigma Aldrich) for 24 hours under normal tissue culture conditions (37° C., 5% CO2). The supernatant is harvested for determination of […] concentrations by sandwich ELISA (Duo-set, R&D systems) and read on the fluorescence microplate reader (Varioskan® Flash, ThermoFisher Scientific).

GSK3α [1] = target: T1, GSK3α (Homo sapiens, UniProt P49840); test: GSK 3α enzyme inhibition (FRET), Method 2; assay type: biochemical; conditions: Table 4a2, different laboratory
T1 sequence (P49840 whole entry): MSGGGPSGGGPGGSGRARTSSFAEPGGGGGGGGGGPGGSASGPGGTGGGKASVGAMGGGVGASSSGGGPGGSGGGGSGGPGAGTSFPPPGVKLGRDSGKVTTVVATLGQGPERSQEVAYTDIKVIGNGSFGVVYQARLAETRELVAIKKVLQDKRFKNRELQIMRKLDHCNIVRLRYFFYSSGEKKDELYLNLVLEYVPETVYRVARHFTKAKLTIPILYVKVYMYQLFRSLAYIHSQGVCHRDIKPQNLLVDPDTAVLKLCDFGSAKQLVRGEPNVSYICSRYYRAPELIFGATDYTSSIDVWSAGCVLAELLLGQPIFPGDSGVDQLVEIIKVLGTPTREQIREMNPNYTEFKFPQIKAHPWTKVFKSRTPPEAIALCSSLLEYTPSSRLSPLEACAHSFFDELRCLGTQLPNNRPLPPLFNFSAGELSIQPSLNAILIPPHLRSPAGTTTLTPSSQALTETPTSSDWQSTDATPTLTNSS

Syk = Syk (Homo sapiens, UniProt P43405); test: Syk enzyme inhibition (FRET); assay type: biochemical
Summary of the method: (§1)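 2 hr RT enzyme + cpd (added solns 4/0.4/0.04/0.004 μg/mL); + FRET peptide (8 μM soln) + ATP soln (c-Src 800 μM, Syk 60 μM), 1 hr; protease development 1 hr; read donor/acceptor emission ratio.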

cSrc = cSrc (Homo sapiens, UniProt P12931); test: c-Src enzyme inhibition (FRET); assay type: biochemical
cSrc, sequence (P12931 whole entry): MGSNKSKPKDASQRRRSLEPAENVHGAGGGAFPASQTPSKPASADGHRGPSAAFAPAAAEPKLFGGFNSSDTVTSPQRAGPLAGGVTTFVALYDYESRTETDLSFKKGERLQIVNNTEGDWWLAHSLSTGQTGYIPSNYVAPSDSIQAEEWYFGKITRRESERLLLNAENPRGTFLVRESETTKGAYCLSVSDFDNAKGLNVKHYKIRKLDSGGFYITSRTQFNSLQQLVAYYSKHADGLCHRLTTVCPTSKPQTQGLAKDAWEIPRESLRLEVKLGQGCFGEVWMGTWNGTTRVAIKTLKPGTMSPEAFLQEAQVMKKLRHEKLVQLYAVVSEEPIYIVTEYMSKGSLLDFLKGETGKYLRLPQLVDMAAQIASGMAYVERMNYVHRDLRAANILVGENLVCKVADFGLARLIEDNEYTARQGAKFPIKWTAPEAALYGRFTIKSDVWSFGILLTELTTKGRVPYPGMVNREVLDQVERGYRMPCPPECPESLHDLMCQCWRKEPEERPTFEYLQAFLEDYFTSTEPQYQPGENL
Summary of the method: as §1

d-U937 cells = test: Cell viability: MTT assay; assay type: cell-based, human; conditions: 1 μg/mL
Summary of the method: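 MTT reduction (1 h, DMSO solubilisation, A550) measured after compound treatment at 1 or 10 μg/mL of differentiated U937 cells for 4 h (5% FCS RPMI1640) or 24 h (10% FCS). Percentage viability loss computed relative to 0.5% DMSO vehicle, with increases tabulated as negative values.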

GSK3α [2] = target: T1, GSK3α; test: GSK 3α enzyme inhibition (FRET), Method 1; assay type: biochemical; conditions: Table 4a1
Summary of the method: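 GSK3α was preincubated with test compound for 2 hr at RT, then a FRET peptide substrate and ATP were added for 1 hr. Protease development for 1 hr cleaved only non-phosphorylated peptide, and phosphorylation was read as the coumarin/fluorescein emission ratio. Concentrations given are those of the added solutions: enzyme 500 ng/mL, peptide 8 μM, ATP 40 μM.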

[3] = system: TNFα release, d-U937 cells; test: LPS-induced TNFα release in d-U937 cells; assay type: cell-based; conditions: Homo sapiens, dU937; relative to 10 μg/mL BIRB796; Table 4c1; read-out: LPS Induced Release of Cytokine in d-U937 Cells, TNFα REC50
Summary of the method: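 Sandwich ELISA quantifies cytokine in supernatants after 4 hr LPS challenge (0.1 μg/mL) of PMA-differentiated (100 ng/mL, 48–72 hr) U937 macrophages given compound 2 hr beforehand. REC50 derived from concentration-response curve, inhibition calculated relative to vehicle.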

[4] = system: IL-8 release, d-U937 cells; test: LPS-induced IL-8 release in d-U937 cells; assay type: cell-based; conditions: Homo sapiens, dU937; Table 4c1; read-out: LPS Induced Release of Cytokine in d-U937 Cells, IL-8 IC50
Summary of the method: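 IL-8 release after a 4 hr challenge with LPS (0.1 μg/mL, E. coli 0111:B4) following a 2 hr compound pretreatment. Cells were human U937 monocytes differentiated to macrophage-type with PMA 100 ng/mL for 48–72 hr. Relative 50% effective concentration derived from concentration–response data.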

[5] = system: ICAM-1 expression, BEAS2B cells; test: Poly I:C-induced ICAM-1 expression in BEAS2B cells; assay type: cell-based; conditions: Homo sapiens, BEAS-2B; read-out: Poly IC induced ICAM1 in BEAS2B, IC50
Summary of the method: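 Cell-based ELISA for surface ICAM-1 in human BEAS2B cells 18 h after transfection with the RNA-virus mimic poly I:C (1 μg/mL, with Oligofectamine), compounds added 2 h beforehand. OD450–655 divided by Crystal Violet OD595 per well; percent inhibition relative to vehicle.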

[6] = Table 4a2, different laboratory

SMILES | IC50 (GSK3α [1]) [nM] | IC50 (Syk; [6]) [nM] | IC50 (cSrc; [6]) [nM] | IC50 (Syk; Table 4a1) [nM] | IC50 (GSK3α [2]) [nM] | EC50 [3] [nM] | IC50 (cSrc; Table 4a1) [nM] | IC50 [4] [nM] | IC50 (IL-8 release, PBMCs) [nM] | Cell viability at time point in d-U937 cells, 4 h (d-U937 cells) | Cell viability at time point in d-U937 cells, 24 h (d-U937 cells) | IC50 [5] [nM]
C#Cc1cc(Nc2nccc(Oc3ccc(NC(=O)Nc4cc(C(C)C)nn4-c4ccc(C)cc4)c(Cl)c3Cl)n2)cc(C(=O)NCCN2CCOCC2)c1 [Example 87, 3-((4-(2,3-Dichloro-4-(3-(3-isopropyl-1-(p-tolyl)-1H-pyrazol-5-yl)ureido)-phenoxy)pyrimidin-2-yl)amino)-5-ethynyl-N-(2-morpholinoethyl)benzamide] | 5840 | 27 | 22 | – | – | – | – | – | 9.4 | – | – | –
C#Cc1cc(Nc2nccc(Oc3ccc(NC(=O)Nc4cc(C(C)C)nn4-c4ccc(C)cc4)c(F)c3F)n2)cc(C(=O)NCCN2CCOCC2)c1 [Example 88, 3-((4-(2,3-Difluoro-4-(3-(3-isopropyl-1-(p-tolyl)-1H-pyrazol-5-yl)ureido)-phenoxy)pyrimidin-2-yl)amino)-5-ethynyl-N-(2-morpholinoethyl)benzamide] | 172 | – | – | – | – | – | – | – | 13.1 | – | – | –
C#Cc1cc(Nc2nccc(Oc3ccc(NC(=O)Nc4cc(C(C)(C)C)nn4-c4ccc(OC)nc4)c4ccccc34)n2)cc(C(=O)NCCN2CCOCC2)c1 [Example 73, 3-((4-((4-(3-(3-(tert-Butyl)-1-(6-methoxypyridin-3-yl)-1H-pyrazol-5-yl)ureido)naphthalen-1-yl)oxy)pyrimidin-2-yl)amino)-5-ethynyl-N-(2-morpholinoethyl)benzamide] | 402 | – | – | – | – | – | – | – | 0.5 | – | – | –
COc1ccc(-n2nc(C(C)C)cc2NC(=O)Nc2ccc(Oc3ccnc(Nc4cc(C(=O)NCCN5CCOCC5)cc(C(F)(F)F)c4)n3)c3ccccc23)cc1 [Example 47, 3-((4-((4-(3-(3-isopropyl-1-(4-methoxyphenyl)-1H-pyrazol-5-yl)ureido)naphthalen-1-yl)oxy)pyrimidin-2-yl)amino)-N-(2-morpholinoethyl)-5-(trifluoromethyl)benzamide] | – | – | – | 12 | 2850 | 0.8 | 5 | 1.4 | – | −ve (−ve and +ve indicate that the value is below and above respectively, the no significant effect threshold, defined as 30% inhibition at 1 μg/mL at the time point indicated) | −ve (−ve and +ve indicate that the value is below and above respectively, the no significant effect threshold, defined as 30% inhibition at 1 μg/mL at the time point indicated) | 3.6

Further lines, with some results ahead:

IC50 (GSK3α [1]) [nM] | IC50 (Syk; [6]) [nM] | IC50 (cSrc; [6]) [nM] | IC50 (Syk; Table 4a1) [nM] | IC50 (GSK3α [2]) [nM] | EC50 [3] [nM] | IC50 (cSrc; Table 4a1) [nM] | IC50 [4] [nM] | SMILES | IC50 (IL-8 release, PBMCs) [nM] | Cell viability at time point in d-U937 cells, 4 h (d-U937 cells) | Cell viability at time point in d-U937 cells, 24 h (d-U937 cells) | IC50 [5] [nM]
154 | – | – | – | – | – | – | – | C#Cc1cc(Nc2nccc(Oc3ccc(NC(=O)Nc4cc(C(C)C)nn4-c4ccc(C)cc4)c(Cl)c3Cl)n2)cc(C(=O)NCCN(C)C)c1 [Example 90, 3-((4-(2,3-Dichloro-4-(3-(3-isopropyl-1-(p-tolyl)-1H-pyrazol-5-yl)ureido)-phenoxy)pyrimidin-2-yl)amino)-N-(2-(dimethylamino)ethyl)-5-ethynylbenzamide] | 7.8 | – | – | –
756 | – | – | – | – | – | – | – | C#Cc1cc(Nc2nccc(Oc3ccc(NC(=O)Nc4cc(C(C)(C)OC)nn4-c4ccc(C)cc4)c4ccccc34)n2)cc(C(=O)NCCN2CCOCC2)c1 [Example 79, 3-Ethynyl-5-((4-((4-(3-(3-(2-methoxypropan-2-yl)-1-(p-tolyl)-1H-pyrazol-5-yl)ureido)naphthalen-1-yl)oxy)pyrimidin-2-yl)amino)-N-(2-morpholinoethyl)benzamide] | 1.1 | – | – | –
≥ 15300 | – | – | – | – | – | – | – | C#Cc1cc(Nc2nccc(Oc3ccc(NC(=O)Nc4cc(C(C)C)nn4-c4ccc(C)cc4)c(Cl)c3Cl)n2)cc(C(N)=O)c1 [Example 89, 3-((4-(2,3-Dichloro-4-(3-(3-isopropyl-1-(p-tolyl)-1H-pyrazol-5-yl)ureido)-phenoxy)pyrimidin-2-yl)amino)-5-ethynylbenzamide] | 14.6 | – | – | –
≥ 13500 | – | – | 57 | > 13500 | 9.2 | 1 | 17.2 | CCc1cc(NC(=O)Nc2ccc(Oc3ccnc(Nc4cc(OC)cc(C(=O)NCCN5CCOCC5)c4)n3)c3ccccc23)n(-c2ccc(C)cc2)n1 [Example 49, 3-((4-((4-(3-(3-ethyl-1-(p-tolyl)-1H-pyrazol-5-yl)ureido)naphthalen-1-yl)oxy)pyrimidin-2-yl)amino)-5-methoxy-N-(2-morpholinoethyl)benzamide] | 19 | −ve (−ve and +ve indicate that the value is below and above respectively, the no significant effect threshold, defined as 30% inhibition at 1 μg/mL at the time point indicated) | −ve (−ve and +ve indicate that the value is below and above respectively, the no significant effect threshold, defined as 30% inhibition at 1 μg/mL at the time point indicated) | 33
≥ 12100 | – | – | – | – | – | – | – | C#Cc1cc(Nc2nccc(Oc3ccc(NC(=O)Nc4cc(C(F)(F)C(F)(F)F)nn4-c4ccc(C)cc4)c4ccccc34)n2)cc(C(=O)NCCN2CCOCC2)c1 [Example 74, 3-Ethynyl-N-(2-morpholinoethyl)-5-((4-((4-(3-(3-(perfluoroethyl)-1-(p-tolyl)-1H-pyrazol-5-yl)ureido)naphthalen-1-yl)oxy)pyrimidin-2-yl)amino)benzamide] | 4.1 | – | – | –
≥ 13200 | – | – | 169 | > 13200 | 4.7 | 8 | 46 | COc1cc(C(=O)NCCN2CCOCC2)ccc1Nc1nccc(Oc2ccc(NC(=O)Nc3cc(C(C)C)nn3-c3ccc(C)cc3)c3ccccc23)n1 [Example 36, 4-((4-((4-(3-(3-isopropyl-1-(p-tolyl)-1H-pyrazol-5-yl)ureido)naphthalen-1-yl)oxy)pyrimidin-2-yl)amino)-3-methoxy-N-(2-morpholinoethyl)benzamide] | 30.4 | −ve (−ve and +ve indicate that the value is below and above respectively, the no significant effect threshold, defined as 30% inhibition at 1 μg/mL at the time point indicated) | −ve (−ve and +ve indicate that the value is below and above respectively, the no significant effect threshold, defined as 30% inhibition at 1 μg/mL at the time point indicated) | 82.3
– | – | – | 35 | 309 | 1.5 | 3 | 1.8 | CCCNC(=O)c1cccc(Nc2nccc(Oc3ccc(NC(=O)Nc4cc(C(C)(C)C)nn4-c4ccc(OC)cc4)c4ccccc34)n2)c1 [Example 17, 3-(4-(4-(3-(3-tert-butyl-1-(4-methoxyphenyl)-1H-pyrazol-5-yl)ureido)naphthalen-1-yloxy)pyrimidin-2-ylamino)-N-propylbenzamide] | – | −ve (−ve and +ve indicate that the value is below and above respectively, the no significant effect threshold, defined as 30% inhibition at 1 μg/mL at the time point indicated) | −ve (−ve and +ve indicate that the value is below and above respectively, the no significant effect threshold, defined as 30% inhibition at 1 μg/mL at the time point indicated) | 2.6
